Consider 4 compounds from publication PMC7956476, “Quinoline Functionalized Schiff Base Silver (I) Complexes: Interactions with Biomolecules and In Vitro Cytotoxicity, Antioxidant and Antimicrobial Activities” (Molecules, 2021).

Values after ≈ are worked out from the molar mass of the structure shown. Like-named read-outs stand apart in the source and are kept apart here. Bounds are passed on as bounds.

Series [1] concerns Escherichia coli ATCC 25922. Kind of series: Minimum inhibitory concentration (MIC), spotting on Müeller–Hinton agar. In kind it is cell-based. The settings on record: Gram − Ve; E. coli; 37 °C, 18 h.
The subject of series [2] is Klebsiella pneumoniae ATCC 31488. Described as above. In kind it is cell-based. The settings on record: versus the standard (0.8 µg/mL).
Series [3] deals with Salmonella typhimurium ATCC 14026. Described as above. It counts as cell-based. The settings on record: Gram − Ve; S. typhi; 37 °C, 18 h.
The test system of series [4] is Staphylococcus aureus ATCC 25923. The description is as above. Conditions: Gram + Ve; S. aureus; 37 °C, 18 h. It counts as cell-based.
Series [5] relates to Staphylococcus aureus ATCC 700699 (methicillin-resistant). The series is described as above. In kind it is cell-based. The settings on record: Gram + Ve; methicillin-resistant S. aureus; 37 °C, 18 h.
Series [6] is described as follows: Ferric reducing antioxidant power (FRAP) assay. Conditions: done in triplicate. It counts as biochemical.
A further series deals with calf thymus DNA (CT-DNA). Kind of series: CT-DNA electronic absorption titration (Wolfe–Shimer). In kind it is binding. Conditions: intrinsic binding constant, absorption titration, PBS pH 7.2.
A further series relates to CT-DNA-EB adduct. In words: Fluorescence competitive displacement of ethidium bromide from CT-DNA. It counts as binding, calf. The settings on record: for CT-DNA-EB-Complex Ksv (M^−1) × 10^4: Stern–Volmer quenching constant, EB displacement, 25 °C; for CT-DNA-EB-Complex Kq (M^−1S^−1) × 10^12: bimolecular quenching constant, Ksv = Kqτo, τo 10^−8 s; for CT-DNA-EB-Complex Kbin (M^−1) × 10^5: binding constant from double-logarithmic plot. In short, it runs like this: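 CT-DNA (15 µM) was pre-equilibrated 30 min with ethidium bromide (15 µM) in phosphate buffer pH 7.2, then titrated with complexes (0–20 µM) at 8-min intervals at room temperature. EB emission was recorded at 530–700 nm (excitation 525 nm, 25 °C), and quenching was analysed by Stern–Volmer to give Ksv and Kq (τo taken as 10^−8 s).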

In series [7] the target is bovine serum albumin (BSA) (Bos taurus, UniProt P02769). In words: Albumin binding by absorption spectroscopy titration.
Chain of bovine serum albumin (BSA) (P02769 25-607): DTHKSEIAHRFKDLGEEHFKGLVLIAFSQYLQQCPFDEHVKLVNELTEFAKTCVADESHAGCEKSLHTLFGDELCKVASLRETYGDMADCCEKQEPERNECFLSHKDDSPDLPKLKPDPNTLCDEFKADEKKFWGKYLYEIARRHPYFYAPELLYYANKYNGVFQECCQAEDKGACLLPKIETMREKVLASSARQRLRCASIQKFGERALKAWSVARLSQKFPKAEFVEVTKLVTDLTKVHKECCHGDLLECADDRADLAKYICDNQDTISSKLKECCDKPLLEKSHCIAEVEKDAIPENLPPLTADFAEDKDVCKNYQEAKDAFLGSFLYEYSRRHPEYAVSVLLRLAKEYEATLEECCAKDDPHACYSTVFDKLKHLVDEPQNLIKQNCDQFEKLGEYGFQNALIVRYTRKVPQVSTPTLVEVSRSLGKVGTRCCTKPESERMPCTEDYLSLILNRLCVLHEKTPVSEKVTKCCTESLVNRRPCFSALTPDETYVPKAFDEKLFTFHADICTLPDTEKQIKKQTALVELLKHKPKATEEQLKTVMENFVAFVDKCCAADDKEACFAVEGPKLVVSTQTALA
In series [8] the test system is Staphylococcus aureus ATCC 25923. Set-up: method as in doi:10.1016/j.poly.2019.06.038. Conditions: standard; S. aureus; cited from earlier work.
Series [9] has as its system Staphylococcus aureus ATCC 700699 (methicillin-resistant). Set-up: method as in doi:10.1016/j.poly.2019.06.038. The settings on record: standard; cited from earlier work.
The subject of series [10] is Pseudomonas aeruginosa ATCC 27853. Set-up: method as in doi:10.1016/j.poly.2019.06.038. Conditions: standard; P. aeruginosa; cited from earlier work.
In series [11] the test system is Salmonella typhimurium ATCC 14026. Conditions: standard; S. typhi; cited from earlier work.
The subject of series [12] is Escherichia coli ATCC 25922. Set-up: method as in doi:10.1016/j.poly.2019.06.038. Conditions: standard; E. coli; cited from earlier work.
Series [13] concerns human embryonic kidney 293 (HEK293). Kind of series: Cytotoxicity assay (CellTiter 96 AQueous One Solution, 72 h). In kind it is cell-based. Conditions: normal cell line, n = 3, read-out: EC50 ± Std Dev (µM) HEK293. On the procedure:
(§1) In vitro cell viability with cultured cells is a method commonly used for cytotoxicity activities of potential anticancer compounds due to reduced cost speed, and potential for automation, and tests using human cells other than some in vivo animal tests. […] The cytotoxicity assay was conducted as per the standard method and as described by Abrahams et al. 2018 [111]. […] The plate was then incubated for 72 h at 37 °C and 5% CO2. To each well, 20 µL CellTiter 96 AQueous One Solution (Promega, Madison, WI, USA) was added and the plates were incubated for 4 h as previously described. Thereafter, absorbance was read at 490 nm on a multiplate reader (Molecular Devices, San Jose, CA, USA). […] The values recorded are averages of at least three separate experiments (n = 3).

For series [14], the system named is breast cancer cell line (MDA-MB231). Described as above. It counts as cell-based, human. On the procedure:
as §1

The test system of series [15] is cervical cancer cell line (HELA). The description is as above. It counts as cell-based, human. On the procedure:
as §1

Series [16] deals with neuronal cancer cell line (SHSY5Y). Described as above. In kind it is cell-based, human. On the procedure: as §1
Series [17] has as its system Pseudomonas aeruginosa ATCC 27853. Kind of series: Minimum inhibitory concentration (MIC), spotting on Müeller–Hinton agar. In kind it is cell-based. The settings on record: Gram − Ve; P. aeruginosa; 37 °C, 18 h.

For the compound `C(=NCc1cccs1)c1ccc2ccccc2n1.C(=NCc1cccs1)c1ccc2ccccc2n1.O=[N+]([O-])[O-].[Ag+]` [Complex Q5, [Ag(L5)2]NO3], in series [1], the “Minimum inhibitory concentration, EC” value turned out to be 1.6 µg/mL. Further, the “activity times higher than the standard against K. pneumoniae” value in [2] is reported as 32 times. Besides, the “Minimum inhibitory concentration, ST” value in [3] stood at 12.5 µg/mL. Besides, in [4], the “Minimum inhibitory concentration, SA” value stood at 50 µg/mL. Also, the “Minimum inhibitory concentration, MRSA” value in series [5] is reported as 100 µg/mL. The “Antioxidant (IC50 mg/mL) FRAP” value in series [6] is recorded as 2.04 ± 0.0032 mg/mL. The “CT-DNA-Cmp. Kb (M^−1) × 10^5” value in the series with calf thymus DNA (CT-DNA) is on record as 4.00 (M^−1) × 10^5. Besides, in the series on CT-DNA-EB adduct, the “CT-DNA-EB-Complex Ksv (M^−1) × 10^4” value is given as 2.31 (M^−1) × 10^4, the “CT-DNA-EB-Complex Kq (M^−1S^−1) × 10^12” value is on record as 2.31 (M^−1S^−1) × 10^12 and the “CT-DNA-EB-Complex Kbin (M^−1) × 10^5” value is given as 1.03 (M^−1) × 10^5. The “Protein-Complex Kb (M^−1) × 10^4” value in series [7] is 5.95 (M^−1) × 10^4.

For the compound `O=C(O)c1cn(C2CC2)c2cc(N3CCNCC3)c(F)cc2c1=O` [Ciprofloxacin], the “Minimum inhibitory concentration, SA” value in series [8] is listed as 25 µg/mL (≈ 75.4 µM). Also, the “Minimum inhibitory concentration, MRSA” value in [9] is 25 µg/mL (≈ 75.4 µM). For the same compound, the “Minimum inhibitory concentration, PA” value in [10] is given as 0.2 µg/mL (≈ 0.604 µM). Also, in [11], the “Minimum inhibitory concentration, ST” value is reported as 0.4 µg/mL (≈ 1.21 µM). The “Minimum inhibitory concentration, EC” value in series [12] is on record as 1.6 µg/mL (≈ 4.83 µM).

In the case of `N.N.[Cl][Pt][Cl]` [Cisplatin, cisplatin, reference compound], the EC50 in [13] was 14.2 ± 3.8 µM; in series [14] (72 h, n = 3, read-out: EC50 ± Std Dev (µM) MDA-MB231), 22.7 ± 4.89 µM; in series [15] (72 h, n = 3, read-out: EC50 ± Std Dev (µM) HELA), greater than 50 µM; in [16] (72 h, n = 3, read-out: EC50 ± Std Dev (µM) SHSY5Y) it was 19.7 ± 3.77 µM. In series [14] (EC50 in HEK293 over EC50 in MDA-MB231), the “Selectivity Index (SI) MDA-MB231” value is recorded as 0.63. Moreover, the “Selectivity Index (SI) HELA” value in series [15] (EC50 in HEK293 over EC50 in HELA) is 0.28. Besides, in series [16] (EC50 in HEK293 over EC50 in SHSY5Y), the “Selectivity Index (SI) SHSY5Y” value was found to be 0.72.

Turning to `Clc1ccc(N=Cc2ccc3ccccc3n2)cc1.Clc1ccc(N=Cc2ccc3ccccc3n2)cc1.[Ag+].[O-][Cl+3]([O-])([O-])[O-]` [Complex Q8, [Ag(L3)2]ClO4], in series [1], the “Minimum inhibitory concentration, EC” value was determined as 1.6 µg/mL. Also, the “activity times higher than the standard against K. pneumoniae” value in [2] amounted to 64 times. The “Minimum inhibitory concentration, PA” value in series [17] amounted to 0.1 µg/mL. Also, the “Minimum inhibitory concentration, ST” value in series [3] was 25 µg/mL. For the same compound, the “Minimum inhibitory concentration, SA” value in series [4] stood at 50 µg/mL. Also, the “Minimum inhibitory concentration, MRSA” value in series [5] turned out to be 25 µg/mL. In addition, in series [6], the “Antioxidant (IC50 mg/mL) FRAP” value came out at 3.27 ± 0.093 mg/mL. Further, the “CT-DNA-Cmp. Kb (M^−1) × 10^5” value in the series with calf thymus DNA (CT-DNA) is 30.0 (M^−1) × 10^5. Also, in the series with CT-DNA-EB adduct, the “CT-DNA-EB-Complex Ksv (M^−1) × 10^4” value was 3.98 (M^−1) × 10^4, the “CT-DNA-EB-Complex Kq (M^−1S^−1) × 10^12” value was 3.98 (M^−1S^−1) × 10^12 and the “CT-DNA-EB-Complex Kbin (M^−1) × 10^5” value was 1.02 (M^−1) × 10^5. In addition, in series [7], the “Protein-Complex Kb (M^−1) × 10^4” value is given as 9.48 (M^−1) × 10^4.
